Data: patent US20210261538A1, “PROTEIN ARGININE METHYLTRANSFERASE 5 (PRMT5) DEGRADATION / DISRUPTION COMPOUNDS AND METHODS OF USE” (ICAHN SCHOOL OF MEDICINE AT MOUNT SINAI, priority 2018, published 2021)

Key:
PRMT5 substrates = assay: Arginine symmetric dimethylation (SDMA Western blot) in MCF-7 cells; assay type: cell-based; details: MCF-7 cells (Examples 90-92)
Protocol: MCF-7 cells, HEK293T cells and HeLa cells were cultured in Dulbecco's Modified Eagle Medium (DMEM) supplemented with 10% fetal bovine serum (FBS) in 5% CO2 at 37° C. Jurkat cells were cultured in RPMI 1640 medium supplemented with 10% FBS in 5% CO2 at 37° C. H2171 cells were cultured in HITES medium supplemented with 10% FBS in 5% CO2 at 37° C. HCT116 were cultured in McCoy's 5A medium supplemented with 10% fetal bovine serum (FBS) in 5% CO2 at 37° C. All the cells lines were treated with 5 μM (or indicated concentration) of PRMT5 inhibitor (EPZ015666) or degraders, or equivalent volume of DMSO for 6 days (or indicated time points). Fresh compounds were constituted in medium and used for every 2 days. The antibodies used in this study are: PRMT5 antibody (Active Motif), (3-actin antibody (Sigma), SDMA antibody (collaboration with Cell Signaling Technologies). Cell cultures were harvested at the end of compound treatments and applied subjected to western blotting assay. Briefly, cells were washed with PBS and lysed with RIPA lysis buffer for 20 minutes on ice. Then lysates were centrifuged and the clear supernatant were collected. SDS loading buffer was added to the lysates and then the mixture was boiled at 100° C. for 5 minutes. Samples were loaded to 10% or 12% SDS-PAGE gel and ran at 120V for 1.5 hours. Then the proteins were transferred to PVDF membrane and blocked in 5% milk fat at room temperature for 1 hour. Then the membranes were incubated with indicated antibodies at 4° C. overnight. Membranes were washed with PBST buffer three times for 10 minutes each time and incubated with HRP-conjugated (horse radish peroxidase) secondary antibodies at room temperature for 1 hour. Again the membranes were washed with PBST buffer three times for 10 minutes each time. Finally, the indicated proteins on the membranes were visualized with ECL (enhanced chemiluminescence) reagents. MCF-7 cells were treated with EPZ015666 or YS43-22 at indicated compound concentrations (μM) for 6 days.

PRMT5 = PRMT5 (Homo sapiens, UniProt O14744); assay: Western blot of PRMT5 protein levels in MCF-7 cells; assay type: cell-based; set-up: endogenous in cells; host or cells: MCF-7; details: for suppressing PRMT5 expression: MCF-7 cells (Examples 90-92)
Sequence of PRMT5 (O14744 whole entry): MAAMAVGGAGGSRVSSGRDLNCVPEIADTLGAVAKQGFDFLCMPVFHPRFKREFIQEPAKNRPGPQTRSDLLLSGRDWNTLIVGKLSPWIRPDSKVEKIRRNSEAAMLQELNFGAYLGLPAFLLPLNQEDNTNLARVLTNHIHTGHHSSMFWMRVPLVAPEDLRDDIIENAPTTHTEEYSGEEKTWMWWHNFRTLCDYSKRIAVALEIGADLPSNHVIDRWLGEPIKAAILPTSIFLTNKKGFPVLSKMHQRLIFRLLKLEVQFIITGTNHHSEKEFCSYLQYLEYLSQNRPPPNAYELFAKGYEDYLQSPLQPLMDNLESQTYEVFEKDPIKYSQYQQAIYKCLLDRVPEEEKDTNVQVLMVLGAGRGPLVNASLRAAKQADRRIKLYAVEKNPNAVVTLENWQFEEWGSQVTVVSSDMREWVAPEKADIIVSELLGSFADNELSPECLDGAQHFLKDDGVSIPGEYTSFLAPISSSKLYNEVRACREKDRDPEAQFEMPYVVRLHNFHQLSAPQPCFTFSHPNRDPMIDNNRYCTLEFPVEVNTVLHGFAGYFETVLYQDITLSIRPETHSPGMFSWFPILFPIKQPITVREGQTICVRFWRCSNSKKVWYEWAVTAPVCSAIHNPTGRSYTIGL
Sequence of PRMT5 (Q9BQA1 whole entry partner): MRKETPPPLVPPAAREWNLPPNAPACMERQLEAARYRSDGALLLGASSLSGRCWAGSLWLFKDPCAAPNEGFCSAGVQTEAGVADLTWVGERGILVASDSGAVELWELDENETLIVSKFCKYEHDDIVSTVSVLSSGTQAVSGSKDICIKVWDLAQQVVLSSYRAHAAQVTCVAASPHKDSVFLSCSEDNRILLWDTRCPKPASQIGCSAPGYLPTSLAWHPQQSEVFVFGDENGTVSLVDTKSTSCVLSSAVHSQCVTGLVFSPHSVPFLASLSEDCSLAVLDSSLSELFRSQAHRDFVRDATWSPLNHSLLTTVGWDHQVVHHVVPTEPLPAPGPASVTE
Protocol: MCF-7 cells, HEK293T cells and HeLa cells were cultured in Dulbecco's Modified Eagle Medium (DMEM) supplemented with 10% fetal bovine serum (FBS) in 5% CO2 at 37° C. Jurkat cells were cultured in RPMI 1640 medium supplemented with 10% FBS in 5% CO2 at 37° C. H2171 cells were cultured in HITES medium supplemented with 10% FBS in 5% CO2 at 37° C. HCT116 were cultured in McCoy's 5A medium supplemented with 10% fetal bovine serum (FBS) in 5% CO2 at 37° C. All the cells lines were treated with 5 μM (or indicated concentration) of PRMT5 inhibitor (EPZ015666) or degraders, or equivalent volume of DMSO for 6 days (or indicated time points). Fresh compounds were constituted in medium and used for every 2 days. The antibodies used in this study are: PRMT5 antibody (Active Motif), (3-actin antibody (Sigma), SDMA antibody (collaboration with Cell Signaling Technologies). Cell cultures were harvested at the end of compound treatments and applied subjected to western blotting assay. Briefly, cells were washed with PBS and lysed with RIPA lysis buffer for 20 minutes on ice. Then lysates were centrifuged and the clear supernatant were collected. SDS loading buffer was added to the lysates and then the mixture was boiled at 100° C. for 5 minutes. Samples were loaded to 10% or 12% SDS-PAGE gel and ran at 120V for 1.5 hours. Then the proteins were transferred to PVDF membrane and blocked in 5% milk fat at room temperature for 1 hour. Then the membranes were incubated with indicated antibodies at 4° C. overnight. Membranes were washed with PBST buffer three times for 10 minutes each time and incubated with HRP-conjugated (horse radish peroxidase) secondary antibodies at room temperature for 1 hour. Again the membranes were washed with PBST buffer three times for 10 minutes each time. Finally, the indicated proteins on the membranes were visualized with ECL (enhanced chemiluminescence) reagents. MCF-7 cells were treated with DMSO or indicated compounds at 5 μM for 6 days. […] MCF-7 cells were treated with DMSO or indicated serial dilutions of compounds for 6 days. The PRMT5 protein levels were determined by Western blot.

MCF-7 cells = assay: Cell proliferation assay (Cell-Titer Glo) in MCF-7 cells; assay type: cell-based; details: 5 μM, 10 days
Protocol: The same starting number of MCF-7 cells were treated with DMSO, 5 μM EPZ015666 or YS43-22 for up to 10 days. Every two days, fresh compounds were constituted in DMEM medium and added to the cell culture. Relative cell numbers were counted every two days (i.e. day 0, 2, 4, 6, 8 and 10) using Cell-Titer Glo kit (Promega). MCF-7 cells were treated with DMSO, EPZ015666 (5 μM), or YS43-22 (5 μM) for 10 days.

cancer cells = details: EPZ015666 alone (Jin, 2016; Kryukov, 2016); cited from earlier work
MTAP-deleted cells = details: cited from earlier work

suppressing PRMT5 expression (PRMT5)	PRMT5 protein levels (PRMT5; MCF-7 cells, 5 μM, 6 days, Western blot)	PRMT5 protein levels, concentration and time dependence (PRMT5; MCF-7 cells, serial dilutions of compounds, 6 days, Western blot)	SMILES	suppressing PRMT5 activity (PRMT5 substrates)	cell growth of MCF-7 cells (MCF-7 cells)	inhibition of cancer cell proliferation (cancer cells)	anti-proliferation effect compared with genetic PRMT5 knockdown (MTAP-deleted cells)
especially effective	–	–	Cc1ncsc1-c1ccc(CNC(=O)[C@@H]2C[C@@H](O)CN2C(=O)[C@@H](NC(=O)COCCOCCOCCOCCOCC(=O)N2CC(Nc3cc(C(=O)NC[C@H](O)CN4CCc5ccccc5C4)ncn3)C2)C(C)(C)C)cc1 [YS31-60, N-((S)-3-(3,4-dihydroisoquinolin-2(1H)-yl)-2-hydroxypropyl)-6-((1-((S)-19-((2S,4R)-4-hydroxy-2-((4-(4-methylthiazol-5-yl)benzyl)carbamoyl)pyrrolidine-1-carbonyl)-20,20-dimethyl-17-oxo-3,6,9,12,15-pentaoxa-18-azahenicosanoyl)azetidin-3-yl)amino)pyrimidine-4-carboxamide]	especially effective	–	–	–
especially effective	–	–	Cc1ncsc1-c1ccc(CNC(=O)[C@@H]2C[C@@H](O)CN2C(=O)[C@@H](NC(=O)CCOCCOCCOCCOCCOCCC(=O)N2CC(Nc3cc(C(=O)NC[C@H](O)CN4CCc5ccccc5C4)ncn3)C2)C(C)(C)C)cc1 [YS43-16, N-((S)-3-(3,4-dihydroisoquinolin-2(1H)-yl)-2-hydroxypropyl)-6-((1-((S)-21-((2S,4R)-4-hydroxy-2-((4-(4-methylthiazol-5-yl)benzyl)carbamoyl)pyrrolidine-1-carbonyl)-22,22-dimethyl-19-oxo-4,7,10,13,16-pentaoxa-20-azatricosanoyl)azetidin-3-yl)amino)pyrimidine-4-carboxamide]	especially effective	–	–	–
–	no effect	–	O=C(NC[C@H](O)CN1CCc2ccccc2C1)c1cc(NC2COC2)ncn1 [EPZ015666, reference compound]	–	significantly inhibited	failed to optimally inhibit	did not lead to a similar anti-proliferation effect
especially effective	–	concentration- and time-dependent	O=C1CCC(N2C(=O)c3cccc(NCCCCCCC(=O)N4CC(Nc5cc(C(=O)NC[C@H](O)CN6CCc7ccccc7C6)ncn5)C4)c3C2=O)C(=O)N1 (stereo partly drawn) [YS43-8, N-((S)-3-(3,4-dihydroisoquinolin-2(1H)-yl)-2-hydroxypropyl)-6-((1-(7-((2-(2,6-dioxopiperidin-3-yl)-1,3-dioxoisoindolin-4-yl)amino)heptanoyl)azetidin-3-yl)amino)pyrimidine-4-carboxamide]	especially effective	–	–	–
